Laboratory results published in PMC9820167, “Design and Synthesis of Conformationally Flexible Scaffold as Bitopic Ligands for Potent D3-Selective Antagonists” (International Journal of Molecular Sciences, 2022).
Where two headings read alike, the source gives them in different places.

Experiments:
Dopamine D2 = Dopamine D2 (Homo sapiens, UniProt P14416); experiment: PDSP binding screen
Opioid KOR = Opioid KOR (Homo sapiens, UniProt P41145); experiment: PDSP binding screen; conditions: for inhibition at 10 µM: read-out: Ki (nM) or % inhibition at 10 µM: KOR
Opioid KOR, sequence (P41145 whole entry): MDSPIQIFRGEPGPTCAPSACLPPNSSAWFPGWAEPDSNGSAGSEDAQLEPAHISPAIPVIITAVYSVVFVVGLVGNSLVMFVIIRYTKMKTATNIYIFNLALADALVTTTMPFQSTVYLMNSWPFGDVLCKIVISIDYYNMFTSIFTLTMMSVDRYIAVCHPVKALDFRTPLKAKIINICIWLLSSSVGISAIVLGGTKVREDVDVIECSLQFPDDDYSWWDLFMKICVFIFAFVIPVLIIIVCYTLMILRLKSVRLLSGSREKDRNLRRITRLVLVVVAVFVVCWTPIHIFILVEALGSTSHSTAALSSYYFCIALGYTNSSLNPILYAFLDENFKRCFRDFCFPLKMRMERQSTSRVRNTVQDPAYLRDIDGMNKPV

human D3 receptors = human D3 receptors (Homo sapiens, UniProt P35462); experiment: Radioligand binding assay with [125I]IABN, D3 receptor; parameters: expressed in transfected cells; host or cells: HEK293; conditions: for Ki: D3 receptors expressed in HEK cells, mean ± SEM, three experiments, HCl salts; for D2/D3: selectivity ratio of Ki D2 / Ki D3 (fold)
human D3 receptors, sequence (P35462 whole entry): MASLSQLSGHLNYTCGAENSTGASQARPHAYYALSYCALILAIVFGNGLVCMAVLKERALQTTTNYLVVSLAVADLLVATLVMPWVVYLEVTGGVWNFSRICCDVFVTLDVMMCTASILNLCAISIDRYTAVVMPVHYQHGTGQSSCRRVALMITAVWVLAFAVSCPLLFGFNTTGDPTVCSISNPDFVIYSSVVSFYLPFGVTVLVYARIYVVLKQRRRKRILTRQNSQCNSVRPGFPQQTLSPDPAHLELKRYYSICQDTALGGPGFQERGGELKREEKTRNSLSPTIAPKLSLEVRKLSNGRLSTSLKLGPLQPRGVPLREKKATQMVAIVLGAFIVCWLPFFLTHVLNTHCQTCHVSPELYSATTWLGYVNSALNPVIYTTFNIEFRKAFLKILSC
Method: Two different assays were used to evaluate the properties of the analogs described above. The receptor binding affinity was measured by radioligand binding assays using [^125I]IABN with D2 or D3 receptors highly expressed HEK293 cells. The functional activity of the analogs was determined using a β-arrestin recruitment assay. The assay was initially conducted in agonist binding mode to confirm that they function as antagonists at the D3 receptor. Once this efficacy was confirmed, the assay was conducted in antagonist mode to determine the ability of the antagonist to compete with dopamine at the D3 receptor. The results of the antagonist mode assay are reported as IC50 values.
Ki values for D2 and D3 receptors were measured using [^125I]IABN in human D2 and D3 receptors expressed in HEK cells, respectively. A filtration binding assay was used to characterize membrane-associated receptor binding properties. The details for the procedures were described in the literature.

Serotonin 5-HT1B = Serotonin 5-HT1B (Homo sapiens, UniProt P28222); experiment: PDSP binding screen; conditions: for inhibition at 10 µM: read-out: Ki (nM) or % inhibition at 10 µM: 5-HT1B
Serotonin 5-HT1B, sequence (P28222 whole entry): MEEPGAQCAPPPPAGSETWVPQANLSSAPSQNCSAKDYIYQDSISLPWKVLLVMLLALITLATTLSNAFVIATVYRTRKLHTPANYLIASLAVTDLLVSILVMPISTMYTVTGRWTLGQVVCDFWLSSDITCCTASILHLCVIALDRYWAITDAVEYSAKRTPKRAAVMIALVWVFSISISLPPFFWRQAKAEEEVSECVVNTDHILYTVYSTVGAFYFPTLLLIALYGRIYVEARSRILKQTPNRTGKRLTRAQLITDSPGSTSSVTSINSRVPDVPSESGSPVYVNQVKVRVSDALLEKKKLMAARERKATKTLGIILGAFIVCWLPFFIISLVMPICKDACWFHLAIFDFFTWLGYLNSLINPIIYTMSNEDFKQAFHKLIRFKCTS

Histamine H4 = Histamine H4 (Homo sapiens, UniProt Q9H3N8); experiment: PDSP binding screen; conditions: for inhibition at 10 µM: read-out: Ki (nM) or % inhibition at 10 µM: H4
Histamine H4, sequence (Q9H3N8 whole entry): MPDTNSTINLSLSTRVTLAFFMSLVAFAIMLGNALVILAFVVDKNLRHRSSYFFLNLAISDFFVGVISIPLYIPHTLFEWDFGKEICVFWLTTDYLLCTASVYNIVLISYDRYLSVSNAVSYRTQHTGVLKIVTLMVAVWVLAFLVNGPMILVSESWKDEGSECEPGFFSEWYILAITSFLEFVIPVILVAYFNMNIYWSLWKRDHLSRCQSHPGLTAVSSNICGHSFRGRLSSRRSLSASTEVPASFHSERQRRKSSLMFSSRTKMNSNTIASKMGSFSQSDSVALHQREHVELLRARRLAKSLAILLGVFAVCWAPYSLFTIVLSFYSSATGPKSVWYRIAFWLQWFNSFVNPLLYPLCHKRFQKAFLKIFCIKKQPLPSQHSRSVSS

Histamine H2 = Histamine H2 (Homo sapiens, UniProt P25021); experiment: PDSP binding screen; conditions: for inhibition at 10 µM: read-out: Ki (nM) or % inhibition at 10 µM: H2
Histamine H2, sequence (P25021 whole entry): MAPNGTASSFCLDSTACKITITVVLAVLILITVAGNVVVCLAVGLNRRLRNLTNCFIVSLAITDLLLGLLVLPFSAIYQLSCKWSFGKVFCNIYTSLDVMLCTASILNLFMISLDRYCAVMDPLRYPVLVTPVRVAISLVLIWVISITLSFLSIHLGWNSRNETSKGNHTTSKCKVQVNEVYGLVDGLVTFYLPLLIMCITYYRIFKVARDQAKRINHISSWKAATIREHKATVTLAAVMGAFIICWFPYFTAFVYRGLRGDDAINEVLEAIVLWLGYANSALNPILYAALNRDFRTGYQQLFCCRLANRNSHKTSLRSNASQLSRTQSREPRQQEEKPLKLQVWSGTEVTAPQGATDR

Adrenergic alpha2B = molecular target: T1, Adrenergic alpha2B (Homo sapiens, UniProt P18089); experiment: PDSP binding screen
T1 sequence (P18089 1-450): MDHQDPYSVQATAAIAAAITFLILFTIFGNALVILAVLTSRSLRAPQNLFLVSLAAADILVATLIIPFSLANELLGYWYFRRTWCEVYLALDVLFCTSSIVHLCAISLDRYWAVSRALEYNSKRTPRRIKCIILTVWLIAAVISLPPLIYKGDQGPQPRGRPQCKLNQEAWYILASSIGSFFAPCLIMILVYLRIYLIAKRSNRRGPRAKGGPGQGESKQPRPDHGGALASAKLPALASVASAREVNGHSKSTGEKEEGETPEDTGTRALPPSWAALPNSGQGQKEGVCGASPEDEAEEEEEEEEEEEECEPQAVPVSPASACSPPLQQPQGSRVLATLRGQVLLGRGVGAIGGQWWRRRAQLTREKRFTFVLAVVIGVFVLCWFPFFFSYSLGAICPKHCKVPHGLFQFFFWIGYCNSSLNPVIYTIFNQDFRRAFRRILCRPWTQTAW

Serotonin 5-HT3 = molecular target: T2, Serotonin 5-HT3 (Homo sapiens, UniProt P46098); experiment: PDSP binding screen
T2 sequence (P46098 24-478): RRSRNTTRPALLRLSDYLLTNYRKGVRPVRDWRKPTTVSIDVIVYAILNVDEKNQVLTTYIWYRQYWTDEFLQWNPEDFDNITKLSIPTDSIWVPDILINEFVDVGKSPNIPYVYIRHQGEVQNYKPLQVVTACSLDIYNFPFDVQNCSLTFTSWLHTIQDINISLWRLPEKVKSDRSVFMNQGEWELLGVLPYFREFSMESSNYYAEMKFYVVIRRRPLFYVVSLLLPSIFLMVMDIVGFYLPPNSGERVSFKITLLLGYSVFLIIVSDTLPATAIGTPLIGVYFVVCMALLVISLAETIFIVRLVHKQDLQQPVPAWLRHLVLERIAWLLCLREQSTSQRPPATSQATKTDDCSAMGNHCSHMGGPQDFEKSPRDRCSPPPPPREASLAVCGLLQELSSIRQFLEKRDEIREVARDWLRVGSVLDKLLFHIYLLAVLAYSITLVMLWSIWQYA

Muscarinic M5 = molecular target: T3, Muscarinic M5 (Homo sapiens, UniProt P08912); experiment: PDSP binding screen; conditions: for inhibition at 10 µM: read-out: Ki (nM) or % inhibition at 10 µM: M5
T3 sequence (P08912 1-532): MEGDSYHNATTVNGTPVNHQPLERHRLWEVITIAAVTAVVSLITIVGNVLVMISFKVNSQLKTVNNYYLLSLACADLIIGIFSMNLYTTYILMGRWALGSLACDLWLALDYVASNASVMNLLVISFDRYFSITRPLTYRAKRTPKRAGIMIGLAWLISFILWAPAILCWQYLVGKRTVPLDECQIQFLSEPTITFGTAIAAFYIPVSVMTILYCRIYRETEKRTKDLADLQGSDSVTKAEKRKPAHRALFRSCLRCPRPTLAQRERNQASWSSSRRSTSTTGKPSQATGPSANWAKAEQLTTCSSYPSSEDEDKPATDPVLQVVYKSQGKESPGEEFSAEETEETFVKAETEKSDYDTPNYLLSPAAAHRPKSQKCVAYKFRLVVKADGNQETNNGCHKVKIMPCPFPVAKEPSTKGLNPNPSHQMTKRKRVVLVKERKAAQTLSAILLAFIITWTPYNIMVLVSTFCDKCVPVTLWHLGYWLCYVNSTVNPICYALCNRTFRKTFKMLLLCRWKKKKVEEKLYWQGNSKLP

Adrenergic beta1 = Adrenergic beta1 (Homo sapiens, UniProt P08588); experiment: PDSP binding screen; conditions: for inhibition at 10 µM: read-out: Ki (nM) or % inhibition at 10 µM: beta1
Adrenergic beta1, sequence (P08588 whole entry): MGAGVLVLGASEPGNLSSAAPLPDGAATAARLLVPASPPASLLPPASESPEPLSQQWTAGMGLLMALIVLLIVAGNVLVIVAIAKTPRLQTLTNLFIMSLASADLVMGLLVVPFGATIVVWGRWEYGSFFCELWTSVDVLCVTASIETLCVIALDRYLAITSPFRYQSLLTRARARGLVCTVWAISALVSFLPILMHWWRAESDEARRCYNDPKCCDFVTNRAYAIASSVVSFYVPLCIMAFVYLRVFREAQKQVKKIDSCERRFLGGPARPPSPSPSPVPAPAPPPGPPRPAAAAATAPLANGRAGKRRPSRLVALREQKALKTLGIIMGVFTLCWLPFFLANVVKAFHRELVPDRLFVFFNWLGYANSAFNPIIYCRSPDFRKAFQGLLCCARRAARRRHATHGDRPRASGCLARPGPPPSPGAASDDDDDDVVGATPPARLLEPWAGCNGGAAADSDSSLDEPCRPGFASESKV

Adrenergic alpha1B = molecular target: T4, Adrenergic alpha1B (Homo sapiens, UniProt P35368); experiment: PDSP binding screen; conditions: for inhibition at 10 µM: read-out: Ki (nM) or % inhibition at 10 µM: alpha1B
T4 sequence (P35368 1-520): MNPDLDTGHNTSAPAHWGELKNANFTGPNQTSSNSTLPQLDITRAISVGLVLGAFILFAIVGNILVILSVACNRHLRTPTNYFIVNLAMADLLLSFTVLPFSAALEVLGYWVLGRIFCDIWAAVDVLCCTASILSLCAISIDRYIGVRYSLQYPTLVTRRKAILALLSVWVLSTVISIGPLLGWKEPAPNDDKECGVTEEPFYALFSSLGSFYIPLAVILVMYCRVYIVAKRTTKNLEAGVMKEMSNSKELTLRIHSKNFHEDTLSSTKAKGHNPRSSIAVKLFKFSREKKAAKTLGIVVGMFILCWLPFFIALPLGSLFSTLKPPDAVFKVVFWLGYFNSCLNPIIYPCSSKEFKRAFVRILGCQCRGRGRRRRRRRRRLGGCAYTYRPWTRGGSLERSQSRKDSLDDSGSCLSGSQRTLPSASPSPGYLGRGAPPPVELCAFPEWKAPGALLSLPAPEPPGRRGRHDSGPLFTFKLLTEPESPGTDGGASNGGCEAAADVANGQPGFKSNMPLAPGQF

[1] = [125I]IABN, read-out: Ki ± SEM (nM) D3

Dopamine D2, sequence (P14416 whole entry): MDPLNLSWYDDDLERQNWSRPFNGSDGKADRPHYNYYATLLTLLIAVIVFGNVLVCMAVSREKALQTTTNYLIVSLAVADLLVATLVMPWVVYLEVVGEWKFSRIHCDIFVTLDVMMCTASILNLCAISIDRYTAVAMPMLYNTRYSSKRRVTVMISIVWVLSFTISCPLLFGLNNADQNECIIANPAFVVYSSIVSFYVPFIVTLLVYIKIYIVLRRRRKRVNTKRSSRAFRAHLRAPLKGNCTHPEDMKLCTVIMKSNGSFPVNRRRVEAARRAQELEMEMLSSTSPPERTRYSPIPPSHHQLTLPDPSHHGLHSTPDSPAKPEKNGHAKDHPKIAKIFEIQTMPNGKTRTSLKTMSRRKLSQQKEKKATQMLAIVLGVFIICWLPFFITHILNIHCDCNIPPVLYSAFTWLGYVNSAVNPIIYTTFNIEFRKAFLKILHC

Compound	Ki (Dopamine D2) [µM]	Ki (Opioid KOR) [µM]	Ki (human D3 receptors; [1]) [nM]	D2/D3 (human D3 receptors)	inhibition at 10 µM (Serotonin 5-HT1B) [%]	inhibition at 10 µM (Histamine H4) [%]	inhibition at 10 µM (Histamine H2) [%]	Ki (Adrenergic alpha2B) [µM]	Ki (Serotonin 5-HT3) [µM]	Ki (Muscarinic M5) [µM]	inhibition at 10 µM (Adrenergic beta1) [%]	Ki (Adrenergic alpha1B) [µM]	inhibition at 10 µM (Opioid KOR) [%]	Ki (Histamine H2) [µM]	inhibition at 10 µM (Muscarinic M5) [%]	inhibition at 10 µM (Adrenergic alpha1B) [%]	Ki (Adrenergic beta1) [µM]	Ki (Serotonin 5-HT1B) [µM]	other results
CCN(CCCNC(=O)c1cc2ccccc2[nH]1)CCNC(=O)c1cc(Br)cc(OC)c1OC [21d, N-(3-((2-(5-Bromo-2,3-dimethoxybenzamido)ethyl)(ethyl)amino)propyl)-1H-indole-2-carboxamide]	0.089	2.33	0.8 ± 0.2	180.5	< 50	< 50	< 50	0.386	0.092	4.22	< 50	> 10	–	–	–	–	–	–	–
CCN(CCCNC(=O)c1ccc2ccccc2c1)CCNC(=O)c1cc(Br)cc(OC)c1OC [21a, N-(3-((2-(5-Bromo-2,3-dimethoxybenzamido)ethyl)(ethyl)amino)propyl)-2-naphthamide]	0.216	–	1.2 ± 0.2	141	< 50	< 50	–	0.577	0.053	–	< 50	3.94	< 50	2.79	< 50	–	–	–	–
CCN(CCCNC(=O)c1ccsc1)CCNC(=O)c1cc(Br)cc(OC)c1OC [21i, N-(3-((2-(5-Bromo-2,3-dimethoxybenzamido)ethyl)(ethyl)amino)propyl)thiophen-e-3-carboxamide]	0.04	–	7 ± 0.5	43.4	< 50	< 50	< 50	2.95	0.029	–	< 50	–	< 50	–	< 50	< 50	–	–	–
CCN(CCCNC(=O)c1cn2ccccc2n1)CCNC(=O)c1cc(Br)cc(OC)c1OC [21e, N-(3-((2-(5-Bromo-2,3-dimethoxybenzamido)ethyl)(ethyl)amino)propyl)imidazo[1,2-a]pyridine-2-carboxamide]	–	–	2.8 ± 0.5	50.7	< 50	< 50	< 50	2.83	0.148	–	–	–	< 50	–	< 50	< 50	6.52	–	inhibition at 10 µM (Dopamine D2; read-out: Ki (nM) or % inhibition at 10 µM: D2): < 50%
CCN(CCCNC(=O)c1cc2ccccc2n1C)CCNC(=O)c1cc(Br)cc(OC)c1OC [21j, N-(3-((2-(5-Bromo-2,3-dimethoxybenzamido)ethyl)(ethyl)amino)propyl)-1-methyl-1H-indole-2-carboxamide]	0.076	–	3.1 ± 0.5	61.9	< 50	< 50	–	0.646	0.246	–	< 50	–	< 50	3.68	< 50	< 50	–	–	–
CCN(CCCNC(=O)c1ccc(-c2ccsc2)cc1)CCNC(=O)c1cc(Br)cc(OC)c1OC [21g, 5-Bromo-N-(2-(ethyl(3-(4-(thiophen-3-yl)benzamido)propyl)amino)ethyl)-2,3-dimethoxybenzamide]	0.17	0.17	2.5 ± 0.3	125	–	< 50	–	0.571	0.195	–	–	1.63	–	2.48	< 50	–	1.89	1.06	–
CCCN(CCCNC(=O)c1ccc(-c2cccs2)cc1)CCNC(=O)c1cc(Br)cc(OC)c1OC [20a, 5-Bromo-2,3-dimethoxy-N-(2-(propyl(3-(4-(thiophen-2-yl)benzamido)propyl)amino)ethyl)benzamide]	0.185	0.116	2.7 ± 0.4	110	–	–	–	0.672	0.103	–	–	1.4	–	1.65	< 50	–	3.71	1.05	Ki (Histamine H4): 3.46 µM
CCN(CCCNC(=O)c1ccc(-c2ccncc2)cc1)CCNC(=O)c1cc(Br)cc(OC)c1OC [21c, 5-Bromo-N-(2-(ethyl(3-(4-(pyridin-4-yl)benzamido)propyl)amino)ethyl)-2,3-dimethoxybenzamide]	0.074	0.642	1.1 ± 0.1	97.3	< 50	< 50	< 50	0.909	0.058	2.39	< 50	–	–	–	–	< 50	–	–	–
CCN(CCCNC(=O)c1ccc(-c2cccs2)cc1)CCNC(=O)c1cc(Br)cc(OC)c1OC [9a, 5-Bromo-N-(2-(ethyl(3-(4-(thiophen-2-yl)benzamido)propyl)amino)ethyl)-2,3-dimethoxybenzamide]	0.232	0.107	–	169	–	–	–	0.235	0.195	5.04	–	2.19	–	2.61	–	–	5.9	0.905	Ki (human D3 receptors; Ki ± SEM (nM) D3, [125I]IABN): 1 ± 0.01 nM; Ki (Histamine H4): 6.42 µM
